For experiment [1], the system named is Plasmodium falciparum. The experiment in a line: Growth inhibition of Plasmodium falciparum at 10 nM. Format: functional.
Experiment [2] deals with Plasmodium falciparum. The experiment is described as follows: Antimalarial activity against chloroquine-resistant Plasmodium falciparum FcB1. Format: functional, organism-based.
The test system of the next experiment is MRC5. The experiment is described as follows: Cytotoxicity tests were performed on a human diploid embryonic lung cell line (MRC5) using the colorimetric MTT assay. Format: functional, cell-based. In general terms: Formazan colour is commonly taken as a measure of viable cells.

pIC50: −log10 of the molar value.

A word on the inhibition: it is the change of the read-out against control, counted positive when it falls. `Cc1ccc(S(=O)(=O)NCCCN2CCN(CCCNc3ccnc4cc(Cl)ccc34)CC2)cc1`: the inhibition at 0.01 µM in the experiment with Plasmodium falciparum [1] turned out to be 54%.

`O=S(=O)(Cc1ccccc1)NCCCN1CCN(CCCNc2ccnc3cc(Cl)ccc23)CC1` came in with an inhibition at 0.01 µM in the experiment with Plasmodium falciparum [1] of 4%.

`Cc1ccc([N+](=O)[O-])cc1S(=O)(=O)NCCCN1CCN(CCCNc2ccnc3cc(Cl)ccc23)CC1` registered an inhibition at 0.01 µM in the experiment with Plasmodium falciparum [1] of 56%.

`O=S(=O)(NCCCN1CCN(CCCNc2ccnc3cc(Cl)ccc23)CC1)c1ccc(Cl)cc1` yielded an inhibition at 0.01 µM in the experiment on Plasmodium falciparum [1] of 26%.

For the molecule `O=[N+]([O-])c1ccccc1S(=O)(=O)NCCCN1CCN(CCCNc2ccnc3cc(Cl)ccc23)CC1`, the inhibition at 0.01 µM in the experiment with Plasmodium falciparum [1] was found to be 0%.

Turning to `CC(=O)c1cccc(S(=O)(=O)NCCCN2CCN(CCCNc3ccnc4cc(Cl)ccc34)CC2)c1`, the inhibition at 0.01 µM in the experiment on Plasmodium falciparum [1] came to 22%.

In turn, `O=[N+]([O-])c1cccc(S(=O)(=O)NCCCN2CCN(CCCNc3ccnc4cc(Cl)ccc34)CC2)c1` returned an inhibition at 0.01 µM in the experiment on Plasmodium falciparum [1] of 48%.

In the experiment on Plasmodium falciparum [1], `O=S(=O)(NCCCN1CCN(CCCNc2ccnc3cc(Cl)ccc23)CC1)c1cc(C(F)(F)F)ccc1Cl` came in with an inhibition at 0.01 µM of 60%.

Turning to `CCS(=O)(=O)NCCCN1CCN(CCCNc2ccnc3cc(Cl)ccc23)CC1`, the inhibition at 0.01 µM in the experiment on Plasmodium falciparum [1] came out at 1%.

As usually defined, the pIC50 is −log10 of the IC50, conventionally taken in molar units. A high value points to a low IC50. For `Clc1ccc2c(NCCCN3CCN(CCCNc4ccnc5cc(Cl)ccc45)CC3)ccnc2c1`, in the experiment with Plasmodium falciparum [2], the pIC50 was 6.95.

With `COc1ccc(Br)cc1S(=O)(=O)NCCCN1CCN(CCCNc2ccnc3cc(Cl)ccc23)CC1`, in the experiment on Plasmodium falciparum [1], the inhibition at 0.01 µM is 64%.

As to `O=S(=O)(NCCCN1CCN(CCCNc2ccnc3cc(Cl)ccc23)CC1)c1ccc(F)cc1`, in the experiment with Plasmodium falciparum [1], the inhibition at 0.01 µM came to 20%.

On to `O=S(=O)(/C=C/c1ccccc1)NCCCN1CCN(CCCNc2ccnc3cc(Cl)ccc23)CC1`, for which the inhibition at 0.01 µM with Plasmodium falciparum [1] amounted to 0%.

For `O=S(=O)(NCCCN1CCN(CCCNc2ccnc3cc(Cl)ccc23)CC1)c1ccccc1F`, 0.01 µM produced 11% inhibition in the experiment on Plasmodium falciparum [1].

Turning to `CC(C)S(=O)(=O)NCCCN1CCN(CCCNc2ccnc3cc(Cl)ccc23)CC1`, in the experiment on Plasmodium falciparum [1], testing at 0.01 µM gave an inhibition of 25%.

On to `CCN(CC)CCCC(C)Nc1ccnc2cc(Cl)ccc12` (stereo unspecified) [CHLOROQUINE], for which the pIC50 in the experiment on MRC5 was 4.30.

For the origin of these results see ChEMBL document CHEMBL1135560, “Parallel synthesis and anti-malarial activity of a sulfonamide library” (Bioorg Med Chem Lett, 2002).
